Source: ChEMBL document CHEMBL4270617, “Design, synthesis, antimicrobial, antiquorum-sensing and antitumor evaluation of new series of pyrazolopyridine derivatives” (Eur J Med Chem, 2018)

Key:
[1] = Displacement of methyl green from DNA (unknown origin) incubated in dark for 24 hrs
Aspergillus flavus = experiment: Antifungal activity against Aspergillus flavus 3375 after 48 hrs by two-fold serial dilution method; assay type: functional; conditions: Aspergillus flavus, 3375, 48 h
Pseudomonas aeruginosa = experiment: Antibacterial activity against Pseudomonas aeruginosa PAO1 after 24 hrs by two-fold serial dilution method; assay type: functional; conditions: PAO1, 24 h
Bacillus cereus = experiment: Antibacterial activity against Bacillus cereus UW 85 after 24 hrs by two-fold serial dilution method; assay type: functional; conditions: UW 85, 24 h
Candida albicans = experiment: Antifungal activity against Candida albicans after 48 hrs by two-fold serial dilution method; assay type: functional
Staphylococcus aureus = experiment: Antibacterial activity against Staphylococcus aureus ATCC 29213 after 24 hrs by two-fold serial dilution method; assay type: functional; conditions: ATCC 29213, 24 h
[2] = tested on: Chromobacterium violaceum; experiment: Inhibition of quorum sensing system in Chromobacterium violaceum ATCC 12472 assessed as diameter of violacein pigment inhibition at 5 mg/ml after 48 hrs
MCF7 = experiment: Antitumor activity against human MCF7 cells assessed as inhibition of cell proliferation after 48 hrs by MTT assay; assay type: functional, cell-based; conditions: MCF7, 48 h
HeLa = experiment: Antitumor activity against human HeLa cells assessed as inhibition of cell proliferation after 48 hrs by MTT assay; assay type: functional, cell-based
HepG2 = experiment: Antitumor activity against human HepG2 cells assessed as inhibition of cell proliferation after 48 hrs by MTT assay; assay type: functional, cell-based; conditions: HepG2, 48 h
Aspergillus fumigatus = experiment: Antifungal activity against Aspergillus fumigatus 293 after 48 hrs by two-fold serial dilution method; assay type: functional; conditions: Aspergillus fumigatus, 293, 48 h
Escherichia coli = experiment: Antibacterial activity against Escherichia coli ATCC 12435 after 24 hrs by two-fold serial dilution method; assay type: functional; conditions: ATCC 12435, 24 h
Mus musculus [3] = experiment: Toxicity in Swiss albino mouse implanted with mouse EAC cells assessed as WBC count at 0.5 mg/mouse administered for 9 days (reference value: 20.53 10^3/mm3); assay type: organism-based; conditions: in vivo, 216 h
Mus musculus [4] = experiment: Toxicity in Swiss albino mouse implanted with mouse EAC cells assessed as hemoglobin level at 0.5 mg/mouse administered for 9 days (reference value: 7.05 g/dl); assay type: organism-based; conditions: in vivo, 216 h
WISH = experiment: Cytotoxicity against human WISH cells after 48 hrs by MTT assay; assay type: cell-based
Ehrlich [5] = experiment: Antitumor activity against mouse EAC cells allografted in Swiss mouse assessed as tumor volume at 0.5 mg/mouse administered for 9 days (reference value: 10.15 mL); assay type: functional
Ehrlich [6] = experiment: Antitumor activity against mouse EAC cells allografted in Swiss mouse assessed as mean survival time at 0.5 mg/mouse administered for 9 days (reference value: 18 day); assay type: functional
Ehrlich [7] = experiment: Antitumor activity against mouse EAC cells allografted in Swiss mouse assessed as viable tumor cell count at 0.5 mg/mouse administered for 9 days (reference value: 77.41 10^6/ml); assay type: functional
WI-38 = experiment: Cytotoxicity against human W138 cells after 48 hrs by MTT assay; assay type: cell-based; conditions: WI-38, 48 h
Mus musculus [8] = experiment: Toxicity in Swiss albino mouse implanted with mouse EAC cells assessed as RBC count at 0.5 mg/mouse administered for 9 days (reference value: 3.59 10^6/mm3); assay type: organism-based; conditions: in vivo, 216 h
Ehrlich [9] = experiment: Antitumor activity against mouse EAC cells allografted in Swiss mouse assessed as increase in life span at 0.5 mg/mouse administered for 9 days relative to control; assay type: functional

| Compound | IC50 [1] [µM] | MIC (Aspergillus flavus) | MIC (Pseudomonas aeruginosa) | MIC (Bacillus cereus) | MIC (Candida albicans) | MIC (Staphylococcus aureus) | diameter of the inhibition zone (DIZ) [2] [mm] | IC50 (MCF7) [µM] | IC50 (HeLa; read-out: IC50) [µM] | IC50 (HepG2) [µM] | MIC (Aspergillus fumigatus) | MIC (Escherichia coli) | further results |
| --- | --- | --- | --- | --- | --- | --- | --- | --- | --- | --- | --- | --- | --- |
| COc1ccc(C2C(C#N)=C(/N=C/OC(C)=O)Nc3[nH]nc(-c4ccccc4)c32)cc1 (configuration not stated) | 39.4 to 82.8 |  |  |  |  |  |  |  |  |  |  |  |  |
| CCOC(=O)C1=C(N/C=N/c2ccc([N+](=O)[O-])cc2)Nc2[nH]nc(C)c2C1c1ccc(N(C)C)cc1 (configuration not stated) | 59.6 | 4090 µM | 128 µM | 1050 µM | 2040 µM | 255 µM | 7 | 58.6 | 57.8 | 50.9 | 4090 µM | 128 µM |  |
| CCOC(=O)C1=C(N/C=N/c2ncc(-c3ccccc3)s2)Nc2[nH]nc(C)c2C1c1ccc(N(C)C)cc1 (configuration not stated) | 74.2 | 3790 µM | 474 µM | 59.2 µM | 1900 µM | 59.2 µM | 3 | 10.1 | 15.4 | 9.79 | 3790 µM | 474 µM | Activity (Mus musculus [3]): 11.83 ×10³ /mm3; Activity (Mus musculus [4]): 11.9 g/dL; IC50 (WISH): 29.5 µM; Activity (Ehrlich [5]): 3.8 mL; MSD (Ehrlich [6]): 34 days; Activity (Ehrlich [7]): 48.56 ×10⁶ /ml; IC50 (WI-38): 33.5 µM; Activity (Mus musculus [8]): 4.85 ×10⁶ /mm3; Activity (Ehrlich [9]): 88.9% |
| CCOC(=O)C1=C(N/N=C(/Cl)C#N)Nc2[nH]nc(C)c2C1c1ccc(N(C)C)cc1 (configuration not stated) |  | 2340 µM | 1170 µM | 2340 µM | 4670 µM | > 200 µg/mL | < 2 | 23.2 | 26.2 | 23.6 | 4670 µM | 2340 µM |  |
| COc1ccc(C2C(C#N)=C(NC(=O)/C=C/C(=O)O)Nc3[nH]nc(-c4ccccc4)c32)cc1 (configuration not stated) | 39.4 to 82.8 |  |  |  |  |  |  |  |  |  |  |  |  |
| OC(Cn1cncn1)(Cn1cncn1)c1ccc(F)cc1F [FLUCONAZOLE] |  | > 200 µg/mL | > 200 µg/mL | > 200 µg/mL | 6530 µM |  |  |  |  |  | > 200 µg/mL | > 200 µg/mL |  |
| CCOC(=O)C1=C(N/N=C(/Cl)c2ccc([N+](=O)[O-])cc2)Nc2[nH]nc(C)c2C1c1ccc(N(C)C)cc1 (configuration not stated) |  | 1910 µM | 954 µM | 1910 µM | 3820 µM | 954 µM | < 2 | 52.7 | 46.2 | 55.5 | 1910 µM | 1910 µM |  |
| CCOC(=O)C1=C(N/N=C(\C#N)C(N)=O)Nc2[nH]nc(C)c2C1c1ccc(N(C)C)cc1 (configuration not stated) |  | 4580 µM | 1150 µM | 2290 µM | 4580 µM | 4580 µM | < 2 | 50.1 | 47.3 | 48.4 | 4580 µM | 1150 µM |  |
| COc1cccc2c1C(=O)c1c(O)c3c(c(O)c1C2=O)C[C@@](O)(C(=O)CO)C[C@@H]3O[C@H]1C[C@H](N)[C@H](O)[C@H](C)O1 [DOXORUBICIN] | 31.3 |  |  |  |  |  |  |  |  | 4.3 |  |  | Activity (Mus musculus [3]): 8.96 ×10³ /mm3; Activity (Mus musculus [4]): 12.75 g/dL; Activity (Ehrlich [5]): 1 mL; MSD (Ehrlich [6]): 62 days; IC50 (HeLa): 5.17 µM; Activity (Ehrlich [7]): 16.36 ×10⁶ /ml; Activity (Mus musculus [8]): 5.32 ×10⁶ /mm3; Activity (Ehrlich [9]): 244.4% |
| CC1(C)S[C@@H]2[C@H](NC(=O)[C@H](N)c3ccccc3)C(=O)N2[C@H]1C(=O)O [AMPICILLIN] |  |  |  | 1430 µM |  | 716 µM |  |  |  |  |  | 28.6 µM |  |
| CCOC(=O)C1=C(N/N=C(/Br)c2ccccc2)Nc2[nH]nc(C)c2C1c1ccc(N(C)C)cc1 (configuration not stated) |  | 1910 µM | 478 µM | 955 µM | 1910 µM | 955 µM | 11 | 78.4 | 75.7 | 72 | 1910 µM | 955 µM |  |
| CCOC(=O)C1=C(N/N=C(\c2ccc([N+](=O)[O-])cc2)N2CCN(c3ccc(F)cc3)CC2)Nc2[nH]nc(C)c2C1c1ccc(N(C)C)cc1 (configuration not stated) | 51.8 | 3000 µM | 187 µM | 374 µM | 749 µM | 749 µM | < 2 | > 100 | 87 | 90.2 | 3000 µM | 187 µM |  |
| CCOC(=O)C1=C(N/C=N/c2ccccn2)Nc2[nH]nc(C)c2C1c1ccc(N(C)C)cc1 (configuration not stated) | 28 | 281 µM | 281 µM | 70.1 µM | 561 µM | 70.1 µM | < 2 | 37.3 | 29.2 | 26.2 | 281 µM | 281 µM |  |
| CCOC(=O)C1=C(N/N=C(/C#N)C(=O)OCC)Nc2[nH]nc(C)c2C1c1ccc(N(C)C)cc1 (configuration not stated) |  | 2150 µM | 1070 µM | 1070 µM | 537 µM | 2150 µM | < 2 | 35.6 | 39.2 | 46.4 | 2150 µM | 1070 µM |  |
| CCOC(=O)C1=C(N/N=C(/C(=O)Br)c2ccc(Cl)cc2)Nc2[nH]nc(C)c2C1c1ccc(N(C)C)cc1 (configuration not stated) | 80.7 | 3410 µM | 1710 µM | 427 µM | 3410 µM | 427 µM | < 2 | 46.3 | 49.3 | 50.2 | 3410 µM | 1710 µM |  |
| COc1ccc(C2C(C#N)=C(NC(=O)c3ccccc3)Nc3[nH]nc(-c4ccccc4)c32)cc1 (configuration not stated) | 39.4 to 82.8 |  |  |  |  |  |  |  |  |  |  |  |  |
| Oc1cc(O)c2c(c1)O[C@H](c1ccc(O)c(O)c1)[C@@H](O)C2 |  |  |  |  |  |  | 2 |  |  |  |  |  |  |
| CCOC(=O)C1=C(N/N=C(/C(C)=O)C(=O)OCC)Nc2[nH]nc(C)c2C1c1ccc(N(C)C)cc1 (configuration not stated) | 68.2 | 2070 µM | 518 µM | 518 µM | 4140 µM | 2070 µM | < 2 | > 100 | > 100 | > 100 | 2070 µM | 518 µM |  |
| CCOC(=O)C1=C(N/C=N/c2nnc(S(N)(=O)=O)s2)Nc2[nH]nc(C)c2C1c1ccc(N(C)C)cc1 (configuration not stated) | 79.1 | 940 µM | 940 µM | 118 µM | 940 µM | 118 µM | 9 | 34.5 | 26.3 | 38.1 | 940 µM | 940 µM |  |
| CCOC(=O)C1=C(N/N=C(\C(C)=O)C(=O)c2ccccc2)Nc2[nH]nc(C)c2C1c1ccc(N(C)C)cc1 (configuration not stated) |  | 3890 µM | 972 µM | 1940 µM | 1940 µM | 1940 µM | < 2 | 47.3 | 47.4 | 42.3 | 3890 µM | 1940 µM |  |
| CCOC(=O)C(=NNC1=C(C(=O)OCC)C(c2ccc(N(C)C)cc2)c2c(C)n[nH]c2N1)C(=O)OCC (configuration not stated) |  | 1950 µM | 976 µM | 976 µM | 3900 µM | 976 µM | < 2 | 89.8 | 83.8 | 80.8 | 1950 µM | 976 µM |  |
| CCOC(=O)C1=C(N/N=C(/C(=O)Br)c2ccc(Br)cc2)Nc2[nH]nc(C)c2C1c1ccc(N(C)C)cc1 (configuration not stated) | 43.7 | 1590 µM | 397 µM | 99.1 µM | 397 µM | 99.1 µM | < 2 | 61.3 | 68.5 | 65 | 793 µM | 397 µM |  |
| CCOC(=O)C1=C(N/C=N/c2ccc(C)cc2)Nc2[nH]nc(C)c2C1c1ccc(N(C)C)cc1 (configuration not stated) | 76.4 | 2180 µM | 2180 µM | 136 µM | > 200 µg/mL | 136 µM | < 2 | 50.5 | 43.2 | 44.4 | 2180 µM | 2180 µM |  |
